Measured values reported in article PMC12748766, “Structural basis for human chondroitin sulfate chain polymerization” (Nature Communications, 2025).

Tests used:
Assay in all cases: FACE gel glycosylation assay
Type in all cases: biochemical
CHSY1-CHPF2 complex = target: T1, CHSY1-CHPF2 complex (Homo sapiens, UniProt Q86X52); details: acceptor TAMRA-labelled Penta-CSF1 glycopeptide, co-donor UDP-GlcA; Mn2+ and Mg2+, pH 6.5, 30 C
T1 construct: secreted luminal part of both chains (TM helix removed), HEK Freestyle 293-F; N-terminal SUMO, His6 cut with 3C; C-terminal Avi (CHSY1), 3C site and twin-Strep (CHPF2); heterodimer, expected 169 kDa; with Chondroitin sulfate glucuronyltransferase
T1 sequence (Q86X52 68-802): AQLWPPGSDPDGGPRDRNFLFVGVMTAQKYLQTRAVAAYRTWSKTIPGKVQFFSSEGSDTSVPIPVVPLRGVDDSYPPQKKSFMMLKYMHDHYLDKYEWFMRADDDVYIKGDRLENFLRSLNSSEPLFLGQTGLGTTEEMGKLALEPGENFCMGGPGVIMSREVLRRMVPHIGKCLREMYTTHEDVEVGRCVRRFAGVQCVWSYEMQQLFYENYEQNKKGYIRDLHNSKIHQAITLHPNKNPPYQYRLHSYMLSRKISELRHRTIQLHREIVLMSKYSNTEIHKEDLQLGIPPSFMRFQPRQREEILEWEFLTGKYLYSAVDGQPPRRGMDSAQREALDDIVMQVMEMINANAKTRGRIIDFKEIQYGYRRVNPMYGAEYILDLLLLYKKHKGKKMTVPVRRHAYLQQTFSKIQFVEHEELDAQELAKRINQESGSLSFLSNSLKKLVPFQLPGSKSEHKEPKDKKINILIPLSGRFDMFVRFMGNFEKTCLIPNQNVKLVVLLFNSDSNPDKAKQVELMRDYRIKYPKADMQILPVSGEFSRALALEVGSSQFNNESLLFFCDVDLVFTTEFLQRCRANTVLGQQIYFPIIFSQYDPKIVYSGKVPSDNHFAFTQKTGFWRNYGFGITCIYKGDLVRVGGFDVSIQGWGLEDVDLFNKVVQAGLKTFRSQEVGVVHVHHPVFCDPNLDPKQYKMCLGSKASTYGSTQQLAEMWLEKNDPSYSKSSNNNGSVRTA
T1 sequence (Q9P2E5 57-772 partner): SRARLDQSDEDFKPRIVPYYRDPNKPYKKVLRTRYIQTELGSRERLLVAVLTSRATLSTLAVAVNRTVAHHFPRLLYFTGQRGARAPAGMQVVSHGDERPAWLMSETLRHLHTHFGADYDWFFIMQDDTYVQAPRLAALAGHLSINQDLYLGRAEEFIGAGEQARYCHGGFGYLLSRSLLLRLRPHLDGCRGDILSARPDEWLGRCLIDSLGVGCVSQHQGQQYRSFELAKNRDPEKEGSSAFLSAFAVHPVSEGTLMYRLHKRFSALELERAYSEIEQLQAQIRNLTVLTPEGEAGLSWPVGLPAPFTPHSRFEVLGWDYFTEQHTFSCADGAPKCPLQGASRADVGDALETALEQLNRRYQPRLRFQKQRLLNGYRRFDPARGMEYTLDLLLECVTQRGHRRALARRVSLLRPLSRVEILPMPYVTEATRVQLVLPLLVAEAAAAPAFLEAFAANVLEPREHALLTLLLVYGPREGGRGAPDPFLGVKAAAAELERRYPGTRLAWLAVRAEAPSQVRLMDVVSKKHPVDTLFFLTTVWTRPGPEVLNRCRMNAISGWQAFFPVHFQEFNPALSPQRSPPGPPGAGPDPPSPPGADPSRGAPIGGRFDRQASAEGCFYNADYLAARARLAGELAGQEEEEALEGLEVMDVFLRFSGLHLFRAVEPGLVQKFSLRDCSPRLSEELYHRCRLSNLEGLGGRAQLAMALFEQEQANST

CHSY1-CHPF complex = target: T2, CHSY1-CHPF complex (Homo sapiens, UniProt Q86X52); details: acceptor TAMRA-labelled Penta-CSF1 glycopeptide, co-donor UDP-GlcA; Mn2+ and Mg2+, pH 6.5, 30 C
T2 construct: secreted luminal part of both chains (TM helix removed), HEK Freestyle 293-F; N-terminal SUMO, His6 cut with 3C; C-terminal Avi (CHSY1), 3C site and twin-Strep (CHPF); heterodimer, expected 167 kDa; with Chondroitin sulfate synthase 2
T2 sequence (Q86X52 68-802): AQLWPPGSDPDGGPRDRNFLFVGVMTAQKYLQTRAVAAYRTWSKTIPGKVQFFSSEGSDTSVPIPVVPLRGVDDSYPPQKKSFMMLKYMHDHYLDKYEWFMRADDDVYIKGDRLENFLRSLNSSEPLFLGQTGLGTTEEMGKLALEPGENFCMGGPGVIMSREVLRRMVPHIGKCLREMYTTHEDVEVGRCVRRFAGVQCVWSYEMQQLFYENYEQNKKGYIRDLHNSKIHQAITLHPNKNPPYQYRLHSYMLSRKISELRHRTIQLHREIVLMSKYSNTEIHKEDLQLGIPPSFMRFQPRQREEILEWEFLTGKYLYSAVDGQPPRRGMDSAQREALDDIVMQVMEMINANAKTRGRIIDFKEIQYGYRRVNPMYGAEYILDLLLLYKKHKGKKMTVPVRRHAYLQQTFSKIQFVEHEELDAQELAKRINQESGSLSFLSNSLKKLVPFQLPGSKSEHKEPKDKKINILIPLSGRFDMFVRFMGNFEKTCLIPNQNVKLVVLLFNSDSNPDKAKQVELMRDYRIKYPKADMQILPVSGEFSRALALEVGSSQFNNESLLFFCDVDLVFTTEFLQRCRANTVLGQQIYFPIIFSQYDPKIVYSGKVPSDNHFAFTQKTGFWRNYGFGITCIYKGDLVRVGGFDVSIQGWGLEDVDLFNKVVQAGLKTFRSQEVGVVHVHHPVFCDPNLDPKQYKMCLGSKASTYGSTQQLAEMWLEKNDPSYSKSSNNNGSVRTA
T2 sequence (Q8IZ52 81-775 partner): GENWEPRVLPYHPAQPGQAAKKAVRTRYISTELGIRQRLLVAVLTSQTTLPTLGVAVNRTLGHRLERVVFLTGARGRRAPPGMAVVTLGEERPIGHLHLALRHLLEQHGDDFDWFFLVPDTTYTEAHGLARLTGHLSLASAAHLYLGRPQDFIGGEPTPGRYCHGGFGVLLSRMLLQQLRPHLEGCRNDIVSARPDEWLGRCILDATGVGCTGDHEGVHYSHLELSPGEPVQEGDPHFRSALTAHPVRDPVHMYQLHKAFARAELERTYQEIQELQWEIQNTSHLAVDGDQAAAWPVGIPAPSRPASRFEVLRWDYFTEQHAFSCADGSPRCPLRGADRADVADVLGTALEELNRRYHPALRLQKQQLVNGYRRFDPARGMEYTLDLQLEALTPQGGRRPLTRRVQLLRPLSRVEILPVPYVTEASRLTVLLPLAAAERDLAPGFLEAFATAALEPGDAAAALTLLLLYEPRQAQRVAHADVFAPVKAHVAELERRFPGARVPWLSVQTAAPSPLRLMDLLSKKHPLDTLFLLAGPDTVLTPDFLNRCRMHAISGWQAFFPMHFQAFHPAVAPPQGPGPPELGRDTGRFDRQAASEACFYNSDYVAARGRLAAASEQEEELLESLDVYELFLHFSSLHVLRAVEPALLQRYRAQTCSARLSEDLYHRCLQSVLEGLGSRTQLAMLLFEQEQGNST

CHSY3-CHPF2 complex = target: T3, CHSY3-CHPF2 complex (Homo sapiens, UniProt Q70JA7); details: acceptor TAMRA-labelled Penta-CSF1 glycopeptide, co-donor UDP-GlcA; Mn2+ and Mg2+, pH 6.5, 30 C
T3 construct: secreted luminal part of both chains (TM helix removed), HEK Freestyle 293-F; N-terminal SUMO, His6 cut with 3C; C-terminal Avi (CHSY3), 3C site and twin-Strep (CHPF2); heterodimer, expected 167 kDa; with Chondroitin sulfate glucuronyltransferase
T3 sequence (Q70JA7 157-882): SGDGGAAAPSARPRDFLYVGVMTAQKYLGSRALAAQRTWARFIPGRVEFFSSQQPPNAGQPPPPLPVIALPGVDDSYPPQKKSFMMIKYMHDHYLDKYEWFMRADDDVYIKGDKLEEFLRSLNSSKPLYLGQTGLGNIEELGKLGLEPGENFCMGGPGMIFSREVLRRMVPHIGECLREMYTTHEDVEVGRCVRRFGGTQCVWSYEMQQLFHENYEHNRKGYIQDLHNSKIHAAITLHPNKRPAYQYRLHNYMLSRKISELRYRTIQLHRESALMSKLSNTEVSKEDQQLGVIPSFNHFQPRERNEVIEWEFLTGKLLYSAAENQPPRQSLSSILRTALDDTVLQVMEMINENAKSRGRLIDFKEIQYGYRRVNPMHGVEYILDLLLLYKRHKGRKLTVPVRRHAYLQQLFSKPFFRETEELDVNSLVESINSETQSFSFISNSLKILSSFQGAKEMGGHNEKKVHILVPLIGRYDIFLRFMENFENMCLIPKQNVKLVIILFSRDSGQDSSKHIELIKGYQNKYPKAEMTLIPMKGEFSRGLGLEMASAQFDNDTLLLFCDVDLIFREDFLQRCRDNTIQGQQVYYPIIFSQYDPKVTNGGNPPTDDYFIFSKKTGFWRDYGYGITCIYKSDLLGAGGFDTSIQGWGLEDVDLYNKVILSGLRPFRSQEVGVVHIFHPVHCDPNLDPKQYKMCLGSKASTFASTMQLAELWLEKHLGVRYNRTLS
T3 sequence (Q9P2E5 57-772 partner): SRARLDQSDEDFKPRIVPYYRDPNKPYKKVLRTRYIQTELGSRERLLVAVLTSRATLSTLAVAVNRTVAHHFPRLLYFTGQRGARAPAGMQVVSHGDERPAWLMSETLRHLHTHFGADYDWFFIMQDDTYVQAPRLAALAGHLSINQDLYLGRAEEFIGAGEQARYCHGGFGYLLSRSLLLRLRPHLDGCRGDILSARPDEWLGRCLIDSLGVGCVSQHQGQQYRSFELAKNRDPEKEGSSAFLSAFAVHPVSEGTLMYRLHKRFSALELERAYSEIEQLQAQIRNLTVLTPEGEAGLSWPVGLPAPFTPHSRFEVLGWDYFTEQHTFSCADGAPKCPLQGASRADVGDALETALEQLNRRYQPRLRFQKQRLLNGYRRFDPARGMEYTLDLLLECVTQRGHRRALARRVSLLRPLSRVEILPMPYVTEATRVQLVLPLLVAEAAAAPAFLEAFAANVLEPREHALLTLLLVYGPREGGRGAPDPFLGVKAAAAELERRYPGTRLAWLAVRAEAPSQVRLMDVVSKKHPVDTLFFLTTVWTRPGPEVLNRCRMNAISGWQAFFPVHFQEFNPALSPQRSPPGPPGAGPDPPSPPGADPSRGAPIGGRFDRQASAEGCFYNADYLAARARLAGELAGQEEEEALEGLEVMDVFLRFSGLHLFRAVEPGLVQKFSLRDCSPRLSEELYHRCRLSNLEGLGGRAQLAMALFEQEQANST

CHSY3-CHPF complex = target: T4, CHSY3-CHPF complex (Homo sapiens, UniProt Q70JA7); details: acceptor TAMRA-labelled Hexa-CSF1 glycopeptide, co-donor UDP-GlcA; Mn2+ and Mg2+, pH 6.5, 30 C; C-terminal GT7 site of CHSY3
T4 construct: secreted luminal part of both chains (TM helix removed), HEK Freestyle 293-F; N-terminal RPTP sigma signal, SUMO, His6 cut with 3C; C-terminal Avi (CHSY3), 3C site and twin-Strep (CHPF); heterodimer, expected 165 kDa; with Chondroitin sulfate synthase 2
T4 sequence (Q70JA7 157-882): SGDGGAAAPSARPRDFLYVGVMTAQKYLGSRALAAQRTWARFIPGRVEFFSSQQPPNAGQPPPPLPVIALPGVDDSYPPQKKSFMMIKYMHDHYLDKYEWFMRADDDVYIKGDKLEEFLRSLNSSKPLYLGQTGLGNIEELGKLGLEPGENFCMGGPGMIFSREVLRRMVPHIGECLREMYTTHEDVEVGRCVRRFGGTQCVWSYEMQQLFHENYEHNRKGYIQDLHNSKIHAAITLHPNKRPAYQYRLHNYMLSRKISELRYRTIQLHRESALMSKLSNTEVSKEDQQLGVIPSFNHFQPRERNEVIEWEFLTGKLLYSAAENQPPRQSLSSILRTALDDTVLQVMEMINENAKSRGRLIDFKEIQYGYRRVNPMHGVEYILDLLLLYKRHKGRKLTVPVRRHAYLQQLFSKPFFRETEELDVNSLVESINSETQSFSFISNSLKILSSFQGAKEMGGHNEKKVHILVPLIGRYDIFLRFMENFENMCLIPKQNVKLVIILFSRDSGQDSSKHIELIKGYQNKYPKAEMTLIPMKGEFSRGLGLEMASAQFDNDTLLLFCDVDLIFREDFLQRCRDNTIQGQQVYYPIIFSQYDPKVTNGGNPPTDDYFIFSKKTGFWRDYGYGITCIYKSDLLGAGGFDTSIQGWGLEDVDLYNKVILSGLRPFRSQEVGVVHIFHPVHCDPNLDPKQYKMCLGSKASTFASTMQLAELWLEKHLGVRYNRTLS
T4 sequence (Q8IZ52 81-775 partner): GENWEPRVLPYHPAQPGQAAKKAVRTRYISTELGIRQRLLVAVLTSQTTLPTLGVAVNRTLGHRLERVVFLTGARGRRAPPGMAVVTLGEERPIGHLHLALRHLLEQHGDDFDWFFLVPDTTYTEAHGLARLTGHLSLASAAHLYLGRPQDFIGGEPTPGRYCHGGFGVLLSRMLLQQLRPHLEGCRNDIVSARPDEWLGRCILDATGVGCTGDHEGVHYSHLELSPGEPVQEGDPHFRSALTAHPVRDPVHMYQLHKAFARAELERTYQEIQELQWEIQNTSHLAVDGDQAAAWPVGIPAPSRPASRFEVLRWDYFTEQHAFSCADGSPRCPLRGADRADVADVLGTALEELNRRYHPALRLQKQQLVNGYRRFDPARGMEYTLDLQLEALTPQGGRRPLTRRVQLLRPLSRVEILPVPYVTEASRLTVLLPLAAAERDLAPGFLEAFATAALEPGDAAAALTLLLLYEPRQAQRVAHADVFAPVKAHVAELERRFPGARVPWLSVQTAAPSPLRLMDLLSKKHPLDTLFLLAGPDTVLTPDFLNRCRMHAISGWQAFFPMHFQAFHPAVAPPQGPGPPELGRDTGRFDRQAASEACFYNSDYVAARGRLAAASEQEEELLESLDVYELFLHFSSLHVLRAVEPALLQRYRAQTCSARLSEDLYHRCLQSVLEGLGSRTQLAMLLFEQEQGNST

Compound: CC(=O)N[C@H]1[C@@H](OP(=O)(O)OP(=O)(O)OC[C@H]2O[C@@H](n3ccc(=O)[nH]c3=O)[C@H](O)[C@@H]2O)O[C@H](CO)[C@H](O)[C@@H]1O [UDP-GalNAc]
- FACE gel glycosylation assay (CHSY1-CHPF2 complex): All four purified CS polymerase complexes were able to elongate the CS chain
- FACE gel glycosylation assay (CHSY1-CHPF complex): All four purified CS polymerase complexes were able to elongate the CS chain
- FACE gel glycosylation assay (CHSY3-CHPF2 complex): All four purified CS polymerase complexes were able to elongate the CS chain
- FACE gel glycosylation assay (CHSY3-CHPF complex): wild-type CHSY3-CHPF complex efficiently elongated the Penta-CSF1 and Hexa-CSF1 substrates into high molecular weight chains
